# Source: patent US4363805A, “Aminodesoxy-1.4;3.6-dianhydrohexitol nitrates and pharmaceutical composition” (Firma Willmar Schwabe, priority 1980, dated 1982)
# Legend:
# female NMRI-albino mice = assay: Acute toxicity, intravenous, mice; type: in vivo; conditions: within 24 hours
# [1] = Acute toxicity, intravenous, mice; type: in vivo; conditions: mouse, in vivo; intravenous, within 24 hours; read-out: Evaluated LD50-range
# mongrel cats = assay: Inotropic and heart-circulatory effectiveness on narcotised cats, intravenous; type: in vivo, cat; conditions: 6 animals; for blood pressure before / dp/dt (inotropism) before / heart frequency before: before administration
# narcotised guinea pigs = assay: Blood pressure experiments on guinea pigs, i.v.; type: in vivo, guinea pig
structure (smiles),measurement,setting,value
"COc1cc(OC)cc(OCCCN[C@H]2CO[C@H]3[C@@H]2OC[C@@H]3O[N+](=O)[O-])c1 [Example 66, 5-[3-(3,5-Dimethoxyphenoxy)-propylamino]-5-desoxy-1.4;3.6-dianhydro-L-iditol 2-nitrate]",Frequency of death,female NMRI-albino mice; 100 mg/kg i.v.,2/10
same,Frequency of death,female NMRI-albino mice; 200 mg/kg i.v.,3/3
same,LD50 at 24 h,[1],100 to 200 mg/kg
N[C@H]1CO[C@H]2[C@@H]1OC[C@@H]2O[N+](=O)[O-] [1 c],Frequency of death,female NMRI-albino mice; 200 mg/kg i.v.,0/3
same,LD50 at 24 h,[1],> 200 mg/kg
"COc1ccc(CCCCN[C@H]2CO[C@H]3[C@@H]2OC[C@@H]3O[N+](=O)[O-])cc1 [Example 32, 5-[4-(4-Methoxyphenyl)-butylamino]-5-desoxy-1.4;3.6-dianhydro-L-iditol 2-nitrate]",Frequency of death,female NMRI-albino mice; 50 mg/kg i.v.,1/10
same,Frequency of death,female NMRI-albino mice; 100 mg/kg i.v.,10/10
same,LD50 at 24 h,[1],50 to 100 mg/kg
"COc1ccccc1OCC(O)CN[C@H]1CO[C@H]2[C@@H]1OC[C@@H]2O[N+](=O)[O-] (stereo partly drawn) [Example 46, 5-[2-Hydroxy-3-(2-methoxyphenoxy)-propylamino]-5-desoxy-1.4;3.6-dianhydro-L-iditol 2-nitrate]",Frequency of death,female NMRI-albino mice; 100 mg/kg i.v.,0/3
same,Frequency of death,female NMRI-albino mice; 200 mg/kg i.v.,2/3
same,LD50 at 24 h,[1],100 to 200 mg/kg
"COc1cccc(OC)c1OCCCN[C@H]1CO[C@H]2[C@@H]1OC[C@@H]2O[N+](=O)[O-] [Example 65, 5-[3-(2,6-Dimethoxyphenoxy)-propylamino]-5-desoxy-1.4;3.6-dianhydro-L-iditol 2-nitrate]",Frequency of death,female NMRI-albino mice; 50 mg/kg i.v.,4/10
same,Frequency of death,female NMRI-albino mice; 100 mg/kg i.v.,10/10
same,Frequency of death,female NMRI-albino mice; 200 mg/kg i.v.,3/3
same,LD50 at 24 h,[1],~50 mg/kg
"O=[N+]([O-])O[C@H]1CO[C@H]2[C@@H]1OC[C@@H]2NCCCCCc1ccccc1 [Example 30, 5-(5-Phenylpentylamino)-5-desoxy-1.4;3.6-dianhydro-L-iditol 2-nitrate]",blood pressure before,mongrel cats; 0.25 mg/kg i.v.,105.7 mm.Hg
same,dp/dt (inotropism) before,mongrel cats; 0.25 mg/kg i.v.,9600 mm.Hg/sec
same,heart frequency before,mongrel cats; 0.25 mg/kg i.v.,199.7 min⁻¹
same,blood pressure WD,mongrel cats; 0.25 mg/kg i.v.,9.2 min
same,blood pressure after,mongrel cats; 0.25 mg/kg i.v.,88.2 mm.Hg
same,blood pressure Δ,mongrel cats; 0.25 mg/kg i.v.,-17.5 mm.Hg
same,dp/dt (inotropism) after,mongrel cats; 0.25 mg/kg i.v.,8340 mm.Hg/sec
same,dp/dt (inotropism) Δ,mongrel cats; 0.25 mg/kg i.v.,-1260 mm.Hg/sec
same,dp/dt WD,mongrel cats; 0.25 mg/kg i.v.,10.2 min
same,heart frequency after,mongrel cats; 0.25 mg/kg i.v.,198.0 min⁻¹
same,heart frequency Δ,mongrel cats; 0.25 mg/kg i.v.,-1.7 min⁻¹
same,blood pressure WD,mongrel cats; 0.50 mg/kg i.v.,11.2 min
same,blood pressure after,mongrel cats; 0.50 mg/kg i.v.,81.8 mm.Hg
same,blood pressure Δ,mongrel cats; 0.50 mg/kg i.v.,-25.0 mm.Hg
same,dp/dt (inotropism) after,mongrel cats; 0.50 mg/kg i.v.,7540 mm.Hg/sec
same,dp/dt (inotropism) Δ,mongrel cats; 0.50 mg/kg i.v.,-1820 mm.Hg/sec
same,dp/dt WD,mongrel cats; 0.50 mg/kg i.v.,13.7 min
same,heart frequency after,mongrel cats; 0.50 mg/kg i.v.,200.3 min⁻¹
same,heart frequency Δ,mongrel cats; 0.50 mg/kg i.v.,-0.7 min⁻¹
same,blood pressure WD,mongrel cats; 1.00 mg/kg i.v.,22.2 min
same,blood pressure after,mongrel cats; 1.00 mg/kg i.v.,73.3 mm.Hg
same,blood pressure Δ,mongrel cats; 1.00 mg/kg i.v.,-33.0 mm.Hg
same,dp/dt (inotropism) after,mongrel cats; 1.00 mg/kg i.v.,6160 mm.Hg/sec
same,dp/dt (inotropism) Δ,mongrel cats; 1.00 mg/kg i.v.,-2180 mm.Hg/sec
same,dp/dt WD,mongrel cats; 1.00 mg/kg i.v.,23.6 min
same,heart frequency after,mongrel cats; 1.00 mg/kg i.v.,196.0 min⁻¹
same,heart frequency Δ,mongrel cats; 1.00 mg/kg i.v.,-2.3 min⁻¹
same,blood pressure WD,mongrel cats; 2.50 mg/kg i.v.,> 10 min
same,blood pressure after,mongrel cats; 2.50 mg/kg i.v.,60.3 mm.Hg
same,blood pressure Δ,mongrel cats; 2.50 mg/kg i.v.,-45.8 mm.Hg
same,dp/dt (inotropism) after,mongrel cats; 2.50 mg/kg i.v.,5840 mm.Hg/sec
same,dp/dt (inotropism) Δ,mongrel cats; 2.50 mg/kg i.v.,-2060 mm.Hg/sec
same,dp/dt WD,mongrel cats; 2.50 mg/kg i.v.,> 10 min
same,heart frequency after,mongrel cats; 2.50 mg/kg i.v.,188.3 min⁻¹
same,heart frequency Δ,mongrel cats; 2.50 mg/kg i.v.,-2.0 min⁻¹
"COc1cccc(OCCCN[C@H]2CO[C@H]3[C@@H]2OC[C@@H]3O[N+](=O)[O-])c1OC [Example 67, 5-[3-(2,3-Dimethoxyphenoxy)-propylamino]-5-desoxy-1.4;3.6-dianhydro-L-iditol 2-nitrate]",Frequency of death,female NMRI-albino mice; 50 mg/kg i.v.,0/10
same,Frequency of death,female NMRI-albino mice; 100 mg/kg i.v.,3/3
same,Frequency of death,female NMRI-albino mice; 200 mg/kg i.v.,3/3
same,LD50 at 24 h,[1],~70 mg/kg
"O=[N+]([O-])O[C@H]1CO[C@H]2[C@@H]1OC[C@@H]2NCCCCOc1ccccc1 [Example 37, 5-(4-Phenoxybutylamino)-5-desoxy-1.4;3.6-dianhydro-L-iditol 2-nitrate]",Frequency of death,female NMRI-albino mice; 50 mg/kg i.v.,3/10
same,Frequency of death,female NMRI-albino mice; 100 mg/kg i.v.,10/10
same,Frequency of death,female NMRI-albino mice; 200 mg/kg i.v.,3/3
same,LD50 at 24 h,[1],≥ 50 mg/kg
"CC(=O)Nc1ccc(OCCCN[C@H]2CO[C@H]3[C@@H]2OC[C@@H]3O[N+](=O)[O-])cc1 [Example 73, 5-[3-(4-Acetamidophenoxy)-propylamino]-5-desoxy-1.4;3.6-dianhydro-L-iditol 2-nitrate]",Frequency of death,female NMRI-albino mice; 100 mg/kg i.v.,0/3
same,Frequency of death,female NMRI-albino mice; 200 mg/kg i.v.,0/3
same,LD50 at 24 h,[1],> 200 mg/kg
"CCOc1ccccc1OCC(O)CN[C@H]1CO[C@H]2[C@@H]1OC[C@@H]2O[N+](=O)[O-] (stereo partly drawn) [Example 47, 5-[2-Hydroxy-3-(2-ethoxyphenoxy)-propylamino]-5-desoxy-1.4;3.6-dianhydro-L-iditol 2-nitrate]",blood pressure before,mongrel cats; 0.25 mg/kg i.v.,125.7 mm.Hg
same,dp/dt (inotropism) before,mongrel cats; 0.25 mg/kg i.v.,8333 mm.Hg/sec
same,heart frequency before,mongrel cats; 0.25 mg/kg i.v.,187.3 min⁻¹
same,blood pressure WD,mongrel cats; 0.25 mg/kg i.v.,3.0 min
same,blood pressure after,mongrel cats; 0.25 mg/kg i.v.,121.7 mm.Hg
same,blood pressure Δ,mongrel cats; 0.25 mg/kg i.v.,-4.0 mm.Hg
same,dp/dt (inotropism) after,mongrel cats; 0.25 mg/kg i.v.,7433 mm.Hg/sec
same,dp/dt (inotropism) Δ,mongrel cats; 0.25 mg/kg i.v.,-900 mm.Hg/sec
same,dp/dt WD,mongrel cats; 0.25 mg/kg i.v.,3.7 min
same,heart frequency after,mongrel cats; 0.25 mg/kg i.v.,188.7 min⁻¹
same,heart frequency Δ,mongrel cats; 0.25 mg/kg i.v.,+1.4 min^-1
same,blood pressure WD,mongrel cats; 0.50 mg/kg i.v.,5.7 min
same,blood pressure after,mongrel cats; 0.50 mg/kg i.v.,114.2 mm.Hg
same,blood pressure Δ,mongrel cats; 0.50 mg/kg i.v.,-11.3 mm.Hg
same,dp/dt (inotropism) after,mongrel cats; 0.50 mg/kg i.v.,7150 mm.Hg/sec
same,dp/dt (inotropism) Δ,mongrel cats; 0.50 mg/kg i.v.,-1417 mm.Hg/sec
same,dp/dt WD,mongrel cats; 0.50 mg/kg i.v.,9.5 min
same,heart frequency after,mongrel cats; 0.50 mg/kg i.v.,196.0 min⁻¹
same,heart frequency Δ,mongrel cats; 0.50 mg/kg i.v.,+0.3 min^-1
same,blood pressure WD,mongrel cats; 1.00 mg/kg i.v.,8.2 min
same,blood pressure after,mongrel cats; 1.00 mg/kg i.v.,100.8 mm.Hg
same,blood pressure Δ,mongrel cats; 1.00 mg/kg i.v.,-24.3 mm.Hg
same,dp/dt (inotropism) after,mongrel cats; 1.00 mg/kg i.v.,5067 mm.Hg/sec
same,dp/dt (inotropism) Δ,mongrel cats; 1.00 mg/kg i.v.,-2983 mm.Hg/sec
same,dp/dt WD,mongrel cats; 1.00 mg/kg i.v.,10.9 min
same,heart frequency after,mongrel cats; 1.00 mg/kg i.v.,187.0 min⁻¹
same,heart frequency Δ,mongrel cats; 1.00 mg/kg i.v.,-5.0 min⁻¹
same,blood pressure WD,mongrel cats; 2.50 mg/kg i.v.,> 9.0 min
same,blood pressure after,mongrel cats; 2.50 mg/kg i.v.,79.5 mm.Hg
same,blood pressure Δ,mongrel cats; 2.50 mg/kg i.v.,-45.2 mm.Hg
same,dp/dt (inotropism) after,mongrel cats; 2.50 mg/kg i.v.,2933 mm.Hg/sec
same,dp/dt (inotropism) Δ,mongrel cats; 2.50 mg/kg i.v.,-4500 mm.Hg/sec
same,dp/dt WD,mongrel cats; 2.50 mg/kg i.v.,> 10 min
same,heart frequency after,mongrel cats; 2.50 mg/kg i.v.,171.7 min⁻¹
same,heart frequency Δ,mongrel cats; 2.50 mg/kg i.v.,-20.3 min⁻¹
same,blood pressure after,narcotised guinea pigs; 0.25 mg/kg i.v.,41.25 ± 2.78 mm.Hg
same,blood pressure Δ,narcotised guinea pigs; 0.25 mg/kg i.v.,-5.75 mm.Hg
same,blood pressure before,"narcotised guinea pigs; 0.25 mg/kg i.v., before administration",47.00 ± 3.39 mm.Hg
same,blood pressure after,narcotised guinea pigs; 1.00 mg/kg i.v.,33.75 ± 2.02 mm.Hg
same,blood pressure Δ,narcotised guinea pigs; 1.00 mg/kg i.v.,-10.75 mm.Hg
same,blood pressure after,narcotised guinea pigs; 2.50 mg/kg i.v.,25.75 ± 1.31 mm.Hg
same,blood pressure Δ,narcotised guinea pigs; 2.50 mg/kg i.v.,-13.75 mm.Hg
"O=[N+]([O-])O[C@H]1CO[C@H]2[C@@H]1OC[C@@H]2NCCCOc1cccc(C(F)(F)F)c1 [Example 58, 5-[3-(3-Trifluoromethylphenoxy)-propylamino]-5-desoxy-1.4;3.6-dianhydro-L-iditol 2-nitrate]",Frequency of death,female NMRI-albino mice; 100 mg/kg i.v.,7/12
same,LD50 at 24 h,[1],~100 mg/kg
"O=[N+]([O-])O[C@@H]1CO[C@H]2[C@@H]1OC[C@@H]2NCCCOc1ccccc1 [Example 42, 2-(3-Phenoxypropylamino)-2-desoxy-1.4;3.6-dianhydro-D-glucitol 5-nitrate]",Frequency of death,female NMRI-albino mice; 50 mg/kg i.v.,0/3
same,Frequency of death,female NMRI-albino mice; 100 mg/kg i.v.,2/3
same,Frequency of death,female NMRI-albino mice; 200 mg/kg i.v.,6/6
same,LD50 at 24 h,[1],50 to 100 mg/kg
"CN(CCCCc1ccccc1)[C@H]1CO[C@H]2[C@@H]1OC[C@@H]2O[N+](=O)[O-] [Example 22, 5-[N-(4-Phenylbutyl)-N-methylamino]-5-desoxy-1.4;3.6-dianhydro-L-iditol 2-nitrate]",Frequency of death,female NMRI-albino mice; 50 mg/kg i.v.,1/3
same,Frequency of death,female NMRI-albino mice; 100 mg/kg i.v.,3/3
same,Frequency of death,female NMRI-albino mice; 200 mg/kg i.v.,6/6
same,LD50 at 24 h,[1],≥ 50 mg/kg
